In experiment [1] the test system is Enterobacteriaceae. Briefly: Antimicrobial activity against integron carrying Enterobacteriaceae assessed as percent resistant isolates. The experiment is classed as functional.
For experiment [2], the system named is Enterobacteriaceae. Description: Antimicrobial activity against non-integron carrying Enterobacteriaceae assessed as percent resistant isolates. The experiment is classed as functional.

With `CO[C@@]1(NC(=O)Cc2cccs2)C(=O)N2C(C(=O)O)=C(COC(N)=O)CS[C@@H]21` (single isomer, unassigned) [CEFOXITIN], the Activity with Enterobacteriaceae [1] stood at 40%; with Enterobacteriaceae [2], 16.6%.

In the case of `NCC[C@H](O)C(=O)N[C@@H]1C[C@H](N)[C@@H](O[C@H]2O[C@H](CN)[C@@H](O)[C@H](O)[C@H]2O)[C@H](O)[C@H]1O[C@H]1O[C@H](CO)[C@@H](O)[C@H](N)[C@H]1O` [AMIKACIN], the Activity in the experiment with Enterobacteriaceae [1] was found to be 29.7%; with Enterobacteriaceae [2] it was 4.2%.

Consider `CC1(C)S[C@@H]2[C@H](NC(=O)[C@H](N)c3ccccc3)C(=O)N2[C@H]1C(=O)O` [AMPICILLIN], for which the Activity with Enterobacteriaceae [1] is 96.3%; in the experiment on Enterobacteriaceae [2], 60%.

In the case of `C[C@H]1[C@H](NC(=O)/C(=N\OC(C)(C)C(=O)O)c2csc(N)n2)C(=O)N1S(=O)(=O)O` [AZTREONAM], the Activity in the experiment with Enterobacteriaceae [1] came to 26.9%; with Enterobacteriaceae [2], 9.4%.

Consider `CO/N=C(\C(=O)N[C@@H]1C(=O)N2C(C(=O)[O-])=C(C[N+]3(C)CCCC3)CS[C@H]12)c1csc(N)n1` [CEFEPIME], for which the Activity was determined as 29.5% with Enterobacteriaceae [1] and 6.2% in the experiment with Enterobacteriaceae [2].

In the case of `CO/N=C(\C(=O)N[C@@H]1C(=O)N2C(C(=O)O)=C(COC(C)=O)CS[C@H]12)c1csc(N)n1` [CEFOTAXIME], the figures for the Activity in the experiment on Enterobacteriaceae [1] and with Enterobacteriaceae [2] were 41.3% and 6.9%, respectively.

For `CC(C)(O/N=C(\C(=O)N[C@@H]1C(=O)N2C(C(=O)[O-])=C(C[n+]3ccccc3)CS[C@H]12)c1csc(N)n1)C(=O)O` [CEFTAZIDIME], the figures for the Activity with Enterobacteriaceae [1] and with Enterobacteriaceae [2] were 36.3% and 4.9%, respectively.

For `CO/N=C(\C(=O)N[C@@H]1C(=O)N2C(C(=O)O)=C(COC(N)=O)CS[C@H]12)c1ccco1` [CEFUROXIME], the Activity with Enterobacteriaceae [1] came out at 46.9%; in the experiment on Enterobacteriaceae [2], 21.9%.

Regarding `O=C(O)c1cn(C2CC2)c2cc(N3CCNCC3)c(F)cc2c1=O` [CIPROFLOXACIN], the figures for the Activity with Enterobacteriaceae [1] and in the experiment with Enterobacteriaceae [2] were 49.4% and 6.9%, respectively.

In the case of `COc1cc(Cc2cnc(N)nc2N)cc(OC)c1OC.Cc1cc(NS(=O)(=O)c2ccc(N)cc2)no1` [CO-TRIMOXAZOLE], the Activity in the experiment with Enterobacteriaceae [1] is listed as 87.7%; in the experiment with Enterobacteriaceae [2] it was 14.5%.

With `C[C@@H](O)[C@H]1C(=O)N2C(C(=O)O)=C(SCCNC=N)C[C@H]12` [IMIPENEM ANHYDROUS], the Activity with Enterobacteriaceae [1] was 7.6%; in the experiment on Enterobacteriaceae [2], 1.2%.

With `C[C@@H](O)[C@H]1C(=O)N2C(C(=O)O)=C(S[C@@H]3CN[C@H](C(=O)N(C)C)C3)[C@H](C)[C@H]12` [MEROPENEM], the Activity in the experiment with Enterobacteriaceae [1] is reported as 6%; in the experiment with Enterobacteriaceae [2], 2%.

On to `CCN1CCN(C(=O)N[C@@H](C(=O)N[C@@H]2C(=O)N3[C@@H]2SC(C)(C)[C@@H]3C(=O)O)c2ccccc2)C(=O)C1=O` [PIPERACILLIN], for which the Activity in the experiment with Enterobacteriaceae [1] was determined as 90.2%; with Enterobacteriaceae [2] it was 32.1%.

For the compound `NC[C@H]1O[C@H](O[C@H]2[C@H](O)[C@@H](O[C@H]3O[C@H](CO)[C@@H](O)[C@H](N)[C@H]3O)[C@H](N)C[C@@H]2N)[C@H](N)C[C@@H]1O` [TOBRAMYCIN], the Activity came to 41.8% in the experiment on Enterobacteriaceae [1] and 8.5% with Enterobacteriaceae [2].

On to COLISTIMETHATE SODIUM, for which the Activity in the experiment on Enterobacteriaceae [1] and with Enterobacteriaceae [2] was 12.5% each time.

The record behind these values is ChEMBL document CHEMBL1150792, “Enterobacteriaceae bloodstream infections: presence of integrons, risk factors, and outcome” (2007).
